Data from PubChem BioAssay (NCI).
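Results reflect a 48-hour exposure of cells in 96-well plates to compound at five concentrations. The concentration for 50% growth inhibition is given as GI50. Definition used: TGI = concentration required for complete inhibition of growth.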 Where a SMILES comes first, the peptide text is derived from it. The star is where a group is joined. Boc = CC(C)(C)OC(=O)*; OBn = c1ccc(CO*)cc1

Columns and labels:
Assay in all cases: NCI anticancer screen, dose series, 48 h
HOP-92 NSCLC = tested on: HOP-92 NSCLC
IGROV1 ovarian = tested on: IGROV1 ovarian
M19-MEL melanoma = tested on: M19-MEL melanoma
MALME-3M melanoma = tested on: MALME-3M melanoma
MCF7 breast = tested on: MCF7 breast
MOLT-4 leukemia = tested on: MOLT-4 leukemia
OVCAR-8 ovarian = tested on: OVCAR-8 ovarian
SF-268 CNS = tested on: SF-268 CNS
SNB-75 CNS = tested on: SNB-75 CNS
SNB-78 CNS = tested on: SNB-78 CNS
SW-620 colon = tested on: SW-620 colon

Row | Compound | TGI (HOP-92 NSCLC) [µM] | TGI (IGROV1 ovarian) [µM] | TGI (M19-MEL melanoma) [µM] | TGI (MALME-3M melanoma) [µM] | TGI (MCF7 breast) [µM] | TGI (MOLT-4 leukemia) [µM] | TGI (OVCAR-8 ovarian) [µM] | TGI (SF-268 CNS) [µM] | TGI (SNB-75 CNS) [µM] | TGI (SNB-78 CNS) [µM] | TGI (SW-620 colon) [µM] | GI50 (HOP-92 NSCLC) [µM] | GI50 (IGROV1 ovarian) [µM] | GI50 (MALME-3M melanoma) [µM] | GI50 (MCF7 breast) [µM] | GI50 (MOLT-4 leukemia) [µM] | GI50 (OVCAR-8 ovarian) [µM] | GI50 (SF-268 CNS) [µM] | GI50 (SNB-75 CNS) [µM] | GI50 (SW-620 colon) [µM]
1 | CC(=O)Oc1ccc(C2COc3cc(OC(C)=O)c(OC(C)=O)cc3C2)cc1 (stereo not given) | 24.9 | 31.2 | 33.2 | 31 | 35.2 | 62 | 35.6 | 51.6 | 32.6 | 80.2 | 35.9 |  |  |  |  |  |  |  |  | 
2 | COc1cc2c(cc1OC)-c1c3c(cc4c1[C@@H](C2)N(C)CC4)OCO3 | 32.4 | 49.9 | 24.1 | 20.1 | 27.3 | 12 | 31.9 | 38.2 | 23.9 | 43.9 | 30.3 |  |  |  |  |  |  |  |  | 
3 | CC1(COS(=O)(=O)OCC2(C)COS(=O)(=O)OC2)COS(=O)(=O)OC1 | > 63.8 | > 100 |  | > 100 | > 59.9 | > 81.5 | > 100 | > 100 | > 100 |  | > 100 |  |  |  |  |  |  |  |  | 
4 | COC(=O)[C@@H]1C[C@@]2(C3C=CN(C(=O)C(F)(F)F)C=C3)c3ccccc3N(C(=O)C(F)(F)F)[C@H]2N1C(=O)OC | > 100 | > 100 |  | > 100 | > 100 | > 100 | > 100 | > 100 | > 100 |  | > 100 |  |  |  |  |  |  |  |  | 
5 | Cc1c2c(OCCCCN3CCN(c4ncccn4)CC3)nn(C)c(=O)c2c(C)n1-c1ccccc1 | 31.8 | 35 |  | 35.7 | 31.4 | 84.6 | 61.3 | 34.3 | 39.4 |  | 69.4 |  |  |  |  |  |  |  |  | 
6 | O=c1oc2ccc(Cl)cc2cc1-c1cn2cc(Cl)ccc2n1 | > 100 | > 100 |  | 92.5 | 6.37 | > 100 | > 100 | > 100 | > 100 |  | > 100 |  |  |  |  |  |  |  |  | 
7 | C=CC[C@@]1(C(=O)OC)[C@H](Sc2ccccc2)C1(C)C | 76.4 | > 100 |  | 84.9 | 74.1 | 34.3 | > 100 | > 100 | 80.8 |  | > 100 |  |  |  |  |  |  |  |  | 
8 | CC(C)(C)OC(=O)NC(Cc1ccccc1)C(=O)NC(Cc1ccccc1)C(=O)NCC(=O)OCc1ccccc1 (stereo not drawn) (Boc-Phe-Phe-Gly-OBn; configuration not given here) | > 100 | 26.5 |  | > 100 | > 100 | 56 | > 100 | 29.4 | 59 |  | 28.4 |  |  |  |  |  |  |  |  | 
9 | C[C@]12CC[C@@H]3c4ccc(OC(=O)c5ccccc5)cc4CC[C@H]3[C@@H]1CC[C@@H]2Oc1c2ccccc2nc2ccccc12 | 36.9 | 42.4 |  | 21.6 | 46.3 | 26.7 | 45 | 20.8 | 18.2 |  | > 50 |  |  |  |  |  |  |  |  | 
10 | c1ccc2c(Cc3nnc4sc(SSc5nn6c(Cc7c[nH]c8ccccc78)nnc6s5)nn34)c[nH]c2c1 | > 100 | 27.6 |  | 78.7 | 46.4 | 70.6 | 73.1 | 67.2 | > 100 |  | 37.6 |  |  |  |  |  |  |  |  | 
11 | CN(C)CCCOCCn1c2c(c3ccccc31)CCCC2 | 46 | 34 |  | 32.5 | 31.5 | 30.6 | 35.9 | > 100 | 57.9 |  | 37.5 |  |  |  |  |  |  |  |  | 
12 | COc1ccc(C(=O)N2c3ccccc3Sc3ccccc32)c(C(F)(F)F)c1 | 3.91 | > 100 |  | > 100 | > 100 | > 100 | > 100 | > 100 | > 100 |  | > 100 | 0.152 | 2.2 | 25.8 | 0.411 | 0.406 | 0.593 | 3.04 | 0.264 | 0.425
13 | NCCCCNCCCNC(=O)c1nc(-c2csc(CCN)n2)sc1Cl | > 100 | > 100 | > 100 | > 100 |  | > 100 | > 100 | > 100 | > 100 | > 100 | > 100 |  |  |  |  |  |  |  |  | 
14 | COc1ccc2nc3cc(Cl)ccc3c(NCCNCCCNC(=O)c3cc(-c4ccccc4)nc4ccccc34)c2c1 | > 100 | > 100 |  | > 100 | > 100 | > 100 | > 100 | > 100 | > 100 |  | > 100 |  |  |  |  |  |  |  |  | 
